“Also recorded” adds a separate entry of the source.
Legend:
Type in all cases: in vivo, C57BL/6 mice
[1] = system: desiccating stress-induced dry eye (experimental dry eye; EDE); assay: Corneal fluorescein staining in mouse model of desiccating stress-induced dry eye; conditions: EDE mice; 5% Lifitegrast or 0.1% SEQ ID NO:1, 2 μL eye drops three times a day; five and ten days; vs untreated dry eyes
Procedure: (§1) The following Methods were used to evaluate the efficacy, anti-inflammatory activity and the therapeutic potential of a peptide inhibitor of trans-endothelial migration peptide compared with 5% Lifitegrast in a mouse model of desiccating stress-induced dry eye (experimental dry eye; EDE).
(§2) Desiccating stress was induced in six to eight-week-old female C57BL/6 mice by subcutaneous injection of 0.5 mg/0.2 mL scopolamine hydrobromide (Sigma-Aldrich, St. Louis, Mo.) three times a day ([…] given at 4.5 hr. intervals) with exposure to an air draft and 30% ambient humidity), which was maintained throughout the dosing period. During these experiments, the animals' behavior, food, and water intake were not restricted. Treatment was terminated and testing was conducted at endpoints of either five or ten days.
Each treatment group comprised 5 animals (n=10 eyes/group) randomly assigned. […]
Ninety seconds after the fluorescein drops were added to measure TBUT, punctate staining on the corneal surface was evaluated in a masked fashion. Each cornea was divided into four quadrants that were scored individually. Corneal fluorescein staining severity score was calculated using a 4-point scale: 0=absent; 1=slightly punctate staining <30 spots; 2=punctate staining >30 spots, but not diffuse; 3=severe diffuse staining but no positive plaque; and 4=positive fluorescein plaque. […]

[2] = system: desiccating stress-induced dry eye (experimental dry eye; EDE); assay: Tear film break-up time (TBUT) in mouse model of desiccating stress-induced dry eye; conditions: EDE mice, 5% Lifitegrast or 0.1% SEQ ID NO:1, 2 μL eye drops three times a day, five and 10-day endpoints, vs untreated dry eye (vehicle)
Procedure: as §1, §2
Each treatment group comprised 5 animals (n=10 eyes/group) randomly assigned. The groups were treated topically as follows: • 1. Untreated (Normal) control mice that were not exposed to desiccating stress or treated topically • 2. EDE mice treated with balanced salt solution (BSS, vehicle, Alcon, Fort Worth, Tex.) • 3. EDE mice treated with 5% (wt) Lifitegrast (Shire Plc) • 4. […]
All treatment groups received 2 μL eye drops three times a day. The mice in each treatment group: EDE treated with BSS, EDE treated with 5% Lifitegrast, and EDE treated with 0.1% SEQ ID NO:1 were dosed/treated three times/day with 2 uL eye drops of each treatment, respectively (except Normal group). […]
After three blinks, tear film break-up time (BUT) was recorded in seconds using slit lamp biomicroscopy (BQ-900; Haag-Streit, Bern, Switzerland) under cobalt blue light. […]
Tear Film Break-up: This experiment evaluated the anti-inflammatory activity and efficacy of the peptide inhibitor of trans-endothelial migration peptide in ameliorating Desiccation-induced Dry Eye (DED). Eyes were evaluated for time for dry spots to appear on the corneal surface of the eye after blinking. […] Subjects with normal tear quantity but an unstable tear film can explain dry eye symptoms. […]

[3] = system: CD4+ and CCR5+ T cells from the conjunctiva; assay: Flow cytometry of activated T cells from the conjunctiva in murine dry eye model; conditions: EDE mice; 0.1% SEQ ID NO:1 eye drops three times a day; after 10 days; normal range 15% to 22%, normal control 18.86%
Procedure: as §1, §2
Each treatment group comprised 5 animals (n=10 eyes/group) randomly assigned. The groups were treated topically as follows: • 1. […]
Flow cytometry was performed for quantitation of CD4+ and CCR5+ T cells from the conjunctiva as previously described (Yoon K C, Heo H, Kang I S, et al. Cornea (2008) 27: 454-460). […]
The number of CD4+ and CCR5+ T cells was counted by a FACSCalibur cytometer with CellQuest software (BD Biosciences).
Eye conjunctiva was evaluated for the number of Activated T cells present in the conjunctiva for each group in the murine Dry Eye study. […]

| Compound | corneal fluorescein staining grade (corneal disruptions) [1] | tear film break-up time [2] | percentage of Activated T Cells within the conjunctiva [3] [%] | tear film break-up time ([2]; listed as peptide inhibitor of trans-endothelial migration peptide) |
| --- | --- | --- | --- | --- |
| CS(=O)(=O)c1cccc(C[C@H](NC(=O)c2c(Cl)cc3c(c2Cl)CCN(C(=O)c2ccc4ccoc4c2)C3)C(=O)O)c1 [Lifitegrast, reference compound] | improved corneal disruptions | can ameliorate induced dry eye; also recorded: can ameliorate DED |  |  |
| H-Ser-Val-Thr-Glu-Gln-Gly-Ala-Glu-Leu-Ser-Asn-Glu-Glu-Arg-NH2 (H-SVTEQGAELSNEER-NH2) [SEQ ID NO:1] | improved corneal disruptions | noticeably improved tear film times at both endpoints | 21.67 | noticeably improved tear film times at both intervals |

— patent publication US11524045B2, “Peptides for dry eye disease” (ALLYSTA PHARMACEUTICALS, INC., priority 2017, dated 2022)
